Each structure is given as a SMILES string. Starred links: 1 amine or outer side, 2 acyl side, 3 side chain; linkers in the order of their positions; H or OH if unused. Non-standard residues stand in square brackets, D forms with d. Residues, ends and D or L forms follow the SMILES beside them. Phe(4-(cis-4-COOH-cHex)) = N[C@@H](Cc1ccc([C@H]2CC[C@@H](C(=O)O)CC2)cc1)C(=O)O; dPro(4R-(4-pyridylmethyl)) = O=C(O)[C@H]1C[C@@H](Cc2ccncc2)CN1; Trp(βS-Me,4-F) = C[C@@H](c1c[nH]c2cccc(F)c12)[C@H](N)C(=O)O; Bip(4'-COOH) = N[C@@H](Cc1ccc(-c2ccc(C(=O)O)cc2)cc1)C(=O)O; Ala(1-bicyclo(1.1.1)pentyl) = N[C@@H](CC12CC(C1)C2)C(=O)O; dPro(4R-Bzl(4-F)) = O=C(O)[C@H]1C[C@@H](Cc2ccc(F)cc2)CN1; dPro(3S-(4-F-Bn)) = O=C(O)[C@@H]1NCC[C@@H]1Cc1ccc(F)cc1; X20 = O=C([C@H]1C[C@@H](Cc2ccc(Cl)cc2)CN1[*:1])[*:2]; X29 = O=C([C@H]1[C@@H](Cc2ccc(Cl)cc2)CCN1[*:1])[*:2]; X4 = O=C([C@H]1[C@@H](Cc2ccncc2)CCN1[*:1])[*:2]; Ala(pyrimidin-5-yl) = N[C@@H](Cc1cncnc1)C(=O)O; Phe(4-COOH) = N[C@@H](Cc1ccc(C(=O)O)cc1)C(=O)O; Bip = N[C@@H](Cc1ccc(-c2ccccc2)cc1)C(=O)O; Pro(cis-4-F) = O=C(O)[C@@H]1C[C@H](F)CN1; X6 = O=C([C@H](Cc1ccncn1)N[*:1])[*:2]; AEF = NCCOc1ccc(C[C@H](N)C(=O)O)cc1; d(αMeD) = C[C@@](N)(CC(=O)O)C(=O)O; 4Pal = N[C@@H](Cc1ccncc1)C(=O)O; aThr = C[C@H](O)[C@H](N)C(=O)O; Dab = NCC[C@H](N)C(=O)O; Aib = CC(C)(N)C(=O)O

For this assay, the target named is T1, IL-1β (Homo sapiens, UniProt P01584).
T1 construct: purchased BioLegend 579404
T1 sequence (P01584 117-269): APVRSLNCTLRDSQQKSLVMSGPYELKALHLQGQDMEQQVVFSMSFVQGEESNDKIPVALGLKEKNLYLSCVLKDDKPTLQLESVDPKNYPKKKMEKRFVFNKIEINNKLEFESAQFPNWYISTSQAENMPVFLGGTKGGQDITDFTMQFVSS
In words: IL-6 assay in MRC5 cells: inhibition of IL-1β induced IL-6 secretion (AlphaLISA). The assay is classed as cell-based. As to conditions: inhibition of IL-1β induced IL-6 secretion in MRC5 cells; read-out: MRC5 IC50. In outline: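 Compound was pre-incubated 1 h at ambient temperature with recombinant human IL-1β at 2λ EC80 before adding human lung fibroblast MRC5 cells (3000/well) in EMEM with 0.025% BSA. After overnight culture at 37 °C, 5% CO2, secreted IL-6 in conditioned medium was measured by AlphaLISA; IC50 from 4-parameter logistic fits.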
(Alpha assays give light when donor and acceptor beads are brought close together.)
The term IC50 denotes the concentration that inhibits the measured activity by half. As for `C[C@@H](c1c[nH]c2cccc(F)c12)[C@@H]1NC(=O)[C@@H]2C[C@H](F)CN2C(=O)CNC(=O)[C@H](Cc2ccc(C(=O)O)cc2)NC(=O)[C@H](Cc2ccncc2)NC(=O)[C@H](Cc2ccc(-c3ccc(C(=O)O)cc3)cc2)NC(=O)[C@H]2[C@@H](Cc3ccncc3)CCN2C(=O)CNC(=O)[C@H](CCN)NC(=O)[C@H](CCC(N)=O)NC(=O)[C@H](Cc2cncnc2)NC(=O)[C@@](C)(CC(=O)O)NC(=O)[C@H](Cc2c[nH]c3ccccc23)NC(=O)[C@H](CO)NC(=O)C(C)(C)NC1=O` [Example 328] (cyclo([Bip(4'-COOH)][4Pal][Phe(4-COOH)]G[Pro(cis-4-F)][Trp(βS-Me,4-F)][Aib]SW[d(αMeD)][Ala(pyrimidin-5-yl)]Q[Dab]G[X4])), the IC50 came to 8 pM. Consider `C[C@@H](c1c[nH]c2cccc(F)c12)[C@@H]1NC(=O)[C@@H]2C[C@H](F)CN2C(=O)CNC(=O)[C@H](Cc2ccc(C(=O)O)cc2)NC(=O)[C@H](Cc2ccncc2)NC(=O)[C@H](Cc2ccc(-c3ccc(C(=O)O)cc3)cc2)NC(=O)[C@H]2C[C@@H](Cc3ccc(Cl)cc3)CN2C(=O)CNC(=O)[C@H](CCN)NC(=O)[C@H](CCC(N)=O)NC(=O)[C@H](Cc2cncnc2)NC(=O)[C@@](C)(CC(=O)O)NC(=O)[C@H](Cc2c[nH]c3ccccc23)NC(=O)[C@H](CO)NC(=O)C(C)(C)NC1=O` [Example 329] (cyclo([Bip(4'-COOH)][4Pal][Phe(4-COOH)]G[Pro(cis-4-F)][Trp(βS-Me,4-F)][Aib]SW[d(αMeD)][Ala(pyrimidin-5-yl)]Q[Dab]G[X20])), for which the IC50 came out at 9 pM.

On to `C[C@@H](c1c[nH]c2cccc(F)c12)[C@@H]1NC(=O)[C@@H]2C[C@H](F)CN2C(=O)CNC(=O)[C@H](Cc2ccc(C(=O)O)cc2)NC(=O)[C@H](Cc2ccncc2)NC(=O)[C@H](Cc2ccc(-c3ccc(C(=O)O)cc3)cc2)NC(=O)[C@H]2[C@@H](Cc3ccc(Cl)cc3)CCN2C(=O)CNC(=O)[C@H](CCN)NC(=O)[C@H](CCC(N)=O)NC(=O)[C@H](Cc2cncnc2)NC(=O)[C@@](C)(CC(=O)O)NC(=O)[C@H](Cc2c[nH]c3ccccc23)NC(=O)[C@H](CO)NC(=O)C(C)(C)NC1=O` [Example 330] (cyclo([Bip(4'-COOH)][4Pal][Phe(4-COOH)]G[Pro(cis-4-F)][Trp(βS-Me,4-F)][Aib]SW[d(αMeD)][Ala(pyrimidin-5-yl)]Q[Dab]G[X29])), for which the IC50 was found to be 8 pM. With `C[C@@H](c1c[nH]c2cccc(F)c12)[C@@H]1NC(=O)[C@@H]2C[C@H](F)CN2C(=O)CNC(=O)[C@H](Cc2ccc(C(=O)O)cc2)NC(=O)[C@H](Cc2ccncc2)NC(=O)[C@H](Cc2ccc(-c3ccc(C(=O)O)cc3)cc2)NC(=O)[C@H]2[C@@H](Cc3ccc(F)cc3)CCN2C(=O)CNC(=O)[C@H](CCN)NC(=O)[C@H](CCC(N)=O)NC(=O)[C@H](Cc2cncnc2)NC(=O)[C@@](C)(CC(=O)O)NC(=O)[C@H](Cc2c[nH]c3ccccc23)NC(=O)[C@H](CO)NC(=O)C(C)(C)NC1=O` [Example 331] (cyclo([Bip(4'-COOH)][4Pal][Phe(4-COOH)]G[Pro(cis-4-F)][Trp(βS-Me,4-F)][Aib]SW[d(αMeD)][Ala(pyrimidin-5-yl)]Q[Dab]G[dPro(3S-(4-F-Bn))])) the figure was 11 pM; with `C[C@@H](c1c[nH]c2cccc(F)c12)[C@@H]1NC(=O)[C@@H]2C[C@H](F)CN2C(=O)CNC(=O)[C@H](Cc2ccc(C(=O)O)cc2)NC(=O)[C@H](Cc2ccncc2)NC(=O)[C@H](Cc2ccc(-c3ccc(C(=O)O)cc3)cc2)NC(=O)[C@H]2C[C@@H](Cc3ccc(F)cc3)CN2C(=O)CNC(=O)[C@H](CCN)NC(=O)[C@H](CCC(N)=O)NC(=O)[C@H](Cc2ccncn2)NC(=O)[C@@](C)(CC(=O)O)NC(=O)[C@H](Cc2c[nH]c3ccccc23)NC(=O)[C@H](CO)NC(=O)C(C)(C)NC1=O` [Example 332] (cyclo([Bip(4'-COOH)][4Pal][Phe(4-COOH)]G[Pro(cis-4-F)][Trp(βS-Me,4-F)][Aib]SW[d(αMeD)][X6]Q[Dab]G[dPro(4R-Bzl(4-F))])), 13 pM; with `C[C@@H](c1c[nH]c2cccc(F)c12)[C@@H]1NC(=O)[C@@H]2C[C@H](F)CN2C(=O)CNC(=O)[C@H](Cc2ccc(C(=O)O)cc2)NC(=O)[C@H](Cc2ccncc2)NC(=O)[C@H](Cc2ccc(-c3ccccc3)cc2)NC(=O)[C@H]2C[C@@H](Cc3ccncc3)CN2C(=O)CNC(=O)[C@H](CCN)NC(=O)[C@H](CCC(N)=O)NC(=O)[C@H](Cc2cncnc2)NC(=O)[C@@](C)(CC(=O)O)NC(=O)[C@H](Cc2c[nH]c3ccccc23)NC(=O)[C@H](CO)NC(=O)C(C)(C)NC1=O` [Example 333] (cyclo([Bip][4Pal][Phe(4-COOH)]G[Pro(cis-4-F)][Trp(βS-Me,4-F)][Aib]SW[d(αMeD)][Ala(pyrimidin-5-yl)]Q[Dab]G[dPro(4R-(4-pyridylmethyl))])), 22 pM. The value for `C[C@H](O)[C@@H]1NC(=O)[C@@](C)(CC(=O)O)NC(=O)[C@H](Cc2c[nH]c3ccccc23)NC(=O)[C@H](CO)NC(=O)C(C)(C)NC(=O)[C@H]([C@@H](C)c2c[nH]c3cccc(F)c23)NC(=O)[C@@H]2C[C@H](F)CN2C(=O)CNC(=O)[C@H](Cc2ccc(C(=O)O)cc2)NC(=O)[C@H](CC23CC(C2)C3)NC(=O)[C@H](Cc2ccc([C@H]3CC[C@@H](C(=O)O)CC3)cc2)NC(=O)[C@H]2C[C@@H](Cc3ccncc3)CN2C(=O)CNC(=O)[C@H](CCN)NC(=O)[C@H](CCC(N)=O)NC1=O` [Example 334] (cyclo([Phe(4-(cis-4-COOH-cHex))][Ala(1-bicyclo(1.1.1)pentyl)][Phe(4-COOH)]G[Pro(cis-4-F)][Trp(βS-Me,4-F)][Aib]SW[d(αMeD)][aThr]Q[Dab]G[dPro(4R-(4-pyridylmethyl))])) was 22 pM; that for `C[C@@H](c1c[nH]c2cccc(F)c12)[C@@H]1NC(=O)[C@@H]2C[C@H](F)CN2C(=O)CNC(=O)[C@H](Cc2ccc(C(=O)O)cc2)NC(=O)[C@H](CC23CC(C2)C3)NC(=O)[C@H](Cc2ccc([C@H]3CC[C@@H](C(=O)O)CC3)cc2)NC(=O)[C@H]2C[C@@H](Cc3ccncc3)CN2C(=O)CNC(=O)[C@H](CCN)NC(=O)[C@H](CCC(N)=O)NC(=O)[C@H](Cc2cncnc2)NC(=O)[C@@](C)(CC(=O)O)NC(=O)[C@H](Cc2c[nH]c3ccccc23)NC(=O)[C@H](CO)NC(=O)C(C)(C)NC1=O` [Example 335] (cyclo([Phe(4-(cis-4-COOH-cHex))][Ala(1-bicyclo(1.1.1)pentyl)][Phe(4-COOH)]G[Pro(cis-4-F)][Trp(βS-Me,4-F)][Aib]SW[d(αMeD)][Ala(pyrimidin-5-yl)]Q[Dab]G[dPro(4R-(4-pyridylmethyl))])) was 22 pM.

On to `CC(=O)NCCOc1ccc(C[C@@H]2NC(=O)[C@H]3C[C@@H](Cc4ccncc4)CN3C(=O)CNC(=O)[C@H](CCN)NC(=O)[C@H](CCC(N)=O)NC(=O)[C@H](Cc3ccccc3)NC(=O)C(C)(C)NC(=O)[C@H](Cc3c[nH]c4ccccc34)NC(=O)[C@H](CCC(=O)O)NC(=O)C(C)(C)NC(=O)[C@H]([C@@H](C)c3c[nH]c4cccc(F)c34)NC(=O)[C@@H]3C[C@H](F)CN3C(=O)CNC(=O)[C@H](Cc3ccc(C(=O)O)cc3)NC(=O)[C@H](Cc3ccncc3)NC2=O)cc1` [Example 336] (cyclo([AEF](Ac)[4Pal][Phe(4-COOH)]G[Pro(cis-4-F)][Trp(βS-Me,4-F)][Aib]EW[Aib]FQ[Dab]G[dPro(4R-(4-pyridylmethyl))])), for which the IC50 stood at 23 pM.

For the origin of these results see patent US20260242419A1, “A CYCLIC PEPTIDE FOR TRAPPING INTERLEUKIN-1 BETA” (Merck Sharp & Dohme LLC, priority 2023, published 2026).
